Data taken from US8278337B2, “Substituted pyridines that are JNK inhibitors” (Merck Sharp & Dohme, priority 2006, dated 2012).
“And” between values parts separate entries of the source, which are not always exact repeats. Equal values may be shown once.

Target: JNK1 (Homo sapiens, UniProt P45983)
Assay: DELFIA kinase assay, JNK1
Type: biochemical
Conditions: DELFIA assay, 2 nM JNK1, 7 uM ATP, 10 min pre-incubation
Method: Assay DELFIA (Dissociation Enhanced Lanthanide Fluorescence Immuno-Assay) Assay:
Before initiation of kinase reactions, compounds were pre-incubated with the enzyme for 10 minutes. Pre-incubation reactions contained 50 mM HEPES pH 7.3, 10 mM MgCl2, 1 mM DTT, 75 mM NaCl, 1 mM EDTA, 1 mM EGTA, 0.01% CHAPS, 2 nM JNK1, 6 ug/mL biotinylated GST-ATF2, 0.1 mg/ml BSA, 5% DMSO and 0-100 μM compound in a total volume of 40 μL. After a 10 minute room temperature pre-incubation, 10 μL of 35 μM ATP was added to start the reaction (final concentration of ATP=7 uM). Reactions were incubated at room temperature for 30 minutes. A small aliquot (10 uL) was taken and quenched by adding into 190 uL of DELFIA Assay buffer containing 100 mM EDTA. The amount of phosphate transferred to biotinylated GST-ATF2 was measured using the Dissociation Enhanced Lanthanide Fluorescence Immuno-assay (DELFIA) from Perkin Elmer according to manufacturers protocol. Briefly, biotinylated GST-ATF2 was captured on streptavidin coated plates for 1 hour, washed twice, then incubated for 1 hour with a 1:1000 dilution of rabbit-anti-phospho-ATF2 antibody and a 1:3500 dilution of Europium-labeled anti-rabbit secondary antibody. Free antibody was removed with six washes, Europium was dissociated from the antibody, and Europium fluorescence was measured using an excitation wavelength of 340 nm and an emission wavelength of 615 nm. JNK2 and JNK3 kinase reactions were carried out similarly, with the exception that the final concentration of ATP was 4 uM and 2 uM, respectively.

JNK1, sequence (P45983 whole entry, species assumed): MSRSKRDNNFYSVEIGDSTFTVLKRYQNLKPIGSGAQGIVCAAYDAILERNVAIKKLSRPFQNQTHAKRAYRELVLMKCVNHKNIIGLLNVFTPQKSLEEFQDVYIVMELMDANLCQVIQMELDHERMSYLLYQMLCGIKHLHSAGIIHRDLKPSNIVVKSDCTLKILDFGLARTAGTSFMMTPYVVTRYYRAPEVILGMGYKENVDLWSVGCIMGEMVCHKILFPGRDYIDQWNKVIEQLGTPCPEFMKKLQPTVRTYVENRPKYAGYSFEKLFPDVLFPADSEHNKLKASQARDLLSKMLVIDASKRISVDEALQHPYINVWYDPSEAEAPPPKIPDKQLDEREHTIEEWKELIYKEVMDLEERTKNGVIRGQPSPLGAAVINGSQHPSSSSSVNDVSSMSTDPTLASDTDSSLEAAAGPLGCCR

| SMILES | IC50 [nM] |
| --- | --- |
| Cc1ccc2cc(-n3cc(CNC(=O)c4cccc(C(=O)NC(C)C)n4)cn3)ccc2n1 [Compound 149] | 14 |

Same assay, conditions: DELFIA assay, 2 nM JNK1, 7 uM ATP, 10 min pre-incubation; second table; read-out: JNK 1 IC50

| SMILES | IC50 [nM] |
| --- | --- |
| CC(C)NC(=O)c1cccc(C(=O)NCc2cnn(-c3cnc4ccccc4c3)c2)n1 [Compound 144] | 7 |
| Cc1ccc2cc(-n3cc(CNC(=O)c4cccc(C(=O)NC(C)C)n4)cn3)ccc2n1 [Compound 149] | 14 |
| CC(C)NC(=O)c1cccc(C(=O)NCc2cnn(-c3ccc4nccnc4c3)c2)n1 [Compound 151] | 13 |

Same assay, conditions: DELFIA, biotinylated GST-ATF2 substrate, 10 minute pre-incubation, final ATP 7 uM

| SMILES | IC50 |
| --- | --- |
| Cc1cc(NC(=O)c2cccc(C(=O)NCc3cnn(-c4ccc(S(C)(=O)=O)cc4)c3)n2)no1 [Compound 78] | 4 to 97 nM |
| CC(C)NC(=O)c1cccc(C(=O)NCc2nc3ccccc3s2)n1 [Compound 85] | 4 to 97 nM |
| COc1ccc(-c2cc(CNC(=O)c3cccc(C(=O)NC(C)C)n3)no2)cc1 [Compound 86] | 4 to 97 nM |
| CC(C)NC(=O)c1cccc(C(=O)NCc2ccc3sc(NC(N)=O)nc3c2)n1 [Compound 87] | 4 to 97 nM |
| CC(C)NC(=O)c1cccc(C(=O)NCc2ccc(S(C)(=O)=O)cc2)n1 [Compound 88] | 102 to 959 nM |
| CC(C)NC(=O)c1cccc(C(=O)NCc2ccc3c(c2)OCO3)n1 [Compound 89] | 102 to 959 nM |
| CC(C)NC(=O)c1cccc(C(=O)Nc2cccnc2)n1 [Compound 90] | > 1000 nM and 1030 to 10000 nM |
| CC(C)NC(=O)c1cccc(C(=O)Nc2ccc3nccnc3c2)n1 [Compound 91] | > 1000 nM and 1030 to 10000 nM |
| Cc1cnc(CNC(=O)c2cccc(C(=O)NC(C)C)n2)cn1 [Compound 92] | > 1000 nM and 1030 to 10000 nM |
| CC(C)NC(=O)c1cccc(C(=O)NCc2cccnc2)n1 [Compound 93] | 102 to 959 nM |
| CC(C)NC(=O)c1cccc(C(=O)NCC2CCN(C(=O)OC(C)(C)C)CC2)n1 [Compound 94] | 102 to 959 nM |
| CC(C)NC(=O)c1cccc(C(=O)NCC2CCN(C(=O)OC(C)(C)C)C2)n1 (stereo not shown) [Compound 95] | > 1000 nM and 1030 to 10000 nM |
| CC(C)NC(=O)c1cccc(C(=O)NCc2cccc(Cl)c2)n1 [Compound 96] | 102 to 959 nM |
| CC(C)NC(=O)c1cccc(C(=O)NCc2ccc(Cl)cc2)n1 [Compound 97] | 102 to 959 nM |
| CC(C)NC(=O)c1cccc(C(=O)NCc2ccc(S(N)(=O)=O)cc2)n1 [Compound 98] | 102 to 959 nM |
| CC(C)NC(=O)c1cccc(C(=O)NCc2ccc(Cl)nc2)n1 [Compound 99] | 102 to 959 nM |
| CC(C)NC(=O)c1cccc(C(=O)NCc2cnn(-c3ccccc3)c2)n1 [Compound 100] | 4 to 97 nM |
| CC(C)NC(=O)c1cccc(C(=O)NCc2ccccn2)n1 [Compound 101] | 1030 to 10000 nM and > 1000 nM |
| Cc1nn(C)c(C)c1CNC(=O)c1cccc(C(=O)NC(C)C)n1 [Compound 102] | 1030 to 10000 nM and > 1000 nM |
| Cc1cc(CNC(=O)c2cccc(C(=O)NC(C)C)n2)nn1C [Compound 103] | 1030 to 10000 nM and > 1000 nM |
| CC(C)NC(=O)c1cccc(C(=O)NCc2nccs2)n1 [Compound 104] | 1030 to 10000 nM and > 1000 nM |
| Cc1nn(-c2ccccc2)c(C)c1CNC(=O)c1cccc(C(=O)NC(C)C)n1 [Compound 105] | 1030 to 10000 nM and > 1000 nM |
| CC(C)NC(=O)c1cccc(C(=O)NCc2nc3ccccc3[nH]2)n1 [Compound 106] | 102 to 959 nM |
| CC(C)NC(=O)c1cccc(C(=O)NCc2nc3ccccc3n2C)n1 [Compound 107] | > 1000 nM and 1030 to 10000 nM |
| Cc1nc2cc(CNC(=O)c3cccc(C(=O)NC(C)C)n3)ccc2[nH]1 [Compound 108] | 102 to 959 nM |

| SMILES | IC50 |
| --- | --- |
| CC(C)NC(=O)c1cccc(C(=O)NCc2ccc(-n3cccn3)cc2)n1 [Compound 109] | 102 to 959 nM |
| Cc1ccc(CNC(=O)c2cccc(C(=O)NC(C)C)n2)cc1F [Compound 110] | 102 to 959 nM |
| COc1ccc(CNC(=O)c2cccc(C(=O)NC(C)C)n2)cc1OC [Compound 111] | 102 to 959 nM |
| CC(C)NC(=O)c1cccc(C(=O)NCc2ccc(-c3ccccc3)cc2)n1 [Compound 112] | 102 to 959 nM |
| CC(C)NC(=O)c1cccc(C(=O)NCc2ccc(N)nc2)n1 [Compound 113] | 102 to 959 nM |
| CC(C)NC(=O)c1cccc(C(=O)NCc2ccc(N3CCCC3)nc2)n1 [Compound 114] | 102 to 959 nM |
| CC(C)NC(=O)c1cccc(C(=O)NCc2ccc(N3CCOCC3)nc2)n1 [Compound 115] | 102 to 959 nM |
| CC(C)NC(=O)c1cccc(C(=O)NCc2cnn(C)c2)n1 [Compound 116] | > 1000 nM and 1030 to 10000 nM |
| CC(C)NC(=O)c1cccc(C(=O)NCc2cnn(C(C)C)c2)n1 [Compound 117] | 102 to 959 nM |
| CC(C)NC(=O)c1cccc(C(=O)NCc2ccc(-c3ccccn3)s2)n1 [Compound 118] | 102 to 959 nM |
| CC(C)NC(=O)c1cccc(C(=O)NCc2cn[nH]c2)n1 [Compound 119] | > 1000 nM and 1030 to 10000 nM |
| CC(C)NC(=O)c1cccc(C(=O)NCc2ccc(N3CCCC3=O)cc2)n1 [Compound 120] | 102 to 959 nM |
| CC(C)NC(=O)c1cccc(C(=O)NC(C)c2ccc(S(C)(=O)=O)cc2)n1 (stereo not shown) [Compound 121] | 102 to 959 nM |
| CC(C)NC(=O)c1cccc(C(=O)NNc2ccc(S(C)(=O)=O)cc2)n1 [Compound 122] | > 1000 nM and 1030 to 10000 nM |
| CC(C)NC(=O)c1cccc(C(=O)N[C@H](C)c2ccc(O)cc2)n1 [Compound 123] | 102 to 959 nM |
| CC(C)NC(=O)c1cccc(C(=O)N[C@@H](C)c2ccc(O)cc2)n1 [Compound 124] | 102 to 959 nM |
| CC(C)NC(=O)c1cccc(C(=O)NCc2cccc(-c3ccccc3)c2)n1 [Compound 125] | 4 to 97 nM |
| CC(C)NC(=O)c1cccc(C(=O)NCc2cccc(Oc3ccccn3)c2)n1 [Compound 126] | 102 to 959 nM |
| Cc1nc2cc(CNC(=O)c3cccc(C(=O)NC(C)C)n3)ccc2n1C [Compound 127] | 102 to 959 nM |
| Cc1nc2ccc(CNC(=O)c3cccc(C(=O)NC(C)C)n3)cc2n1C [Compound 128] | 102 to 959 nM |
| Cc1cccc(-n2cc(CNC(=O)c3cccc(C(=O)NC(C)C)n3)cn2)c1 [Compound 129] | 4 to 97 nM and 4 to 19 nM |
| Cc1ccc(-n2cc(CNC(=O)c3cccc(C(=O)NC(C)C)n3)cn2)cc1 [Compound 130] | 4 to 19 nM and 4 to 97 nM |
| CC(C)NC(=O)c1cccc(C(=O)NCc2cnn(-c3ccc(F)c(Cl)c3)c2)n1 [Compound 131] | 4 to 97 nM |
| CC(C)NC(=O)c1cccc(C(=O)NCc2cnn(-c3cccc(Cl)c3)c2)n1 [Compound 132] | 4 to 97 nM |
| CC(C)NC(=O)c1cccc(C(=O)NCc2cnn(-c3ccc(Cl)cc3)c2)n1 [Compound 133] | 4 to 97 nM |

| SMILES | IC50 |
| --- | --- |
| CC(C)NC(=O)c1cccc(C(=O)NCc2cnn(-c3cccc(S(C)(=O)=O)c3)c2)n1 [Compound 136] | 4 to 97 nM |
| CC(C)NC(=O)c1cccc(C(=O)NCc2cnn(-c3cc(Cl)cc(Cl)c3)c2)n1 [Compound 138] | 4 to 19 nM and 4 to 97 nM |
| CC(C)NC(=O)c1cccc(C(=O)NCc2cnn(-c3cccc(F)c3)c2)n1 [Compound 139] | 4 to 97 nM |
| CC(C)NC(=O)c1cccc(C(=O)NCc2cnn(-c3cccnc3)c2)n1 [Compound 141] | 4 to 97 nM |
| CC(C)NC(=O)c1cccc(C(=O)NCc2cnn(-c3ccc(CN)cc3)c2)n1 [Compound 143] | 4 to 97 nM |
| CC(C)NC(=O)c1cccc(C(=O)NCc2cnn(-c3cnc4ccccc4c3)c2)n1 [Compound 144] | 4 to 19 nM and 4 to 97 nM |
| CC(C)NC(=O)c1cccc(C(=O)NCc2cnn(-c3cncnc3)c2)n1 [Compound 145] | 102 to 959 nM |
| Cc1nc2cc(-n3cc(CNC(=O)c4cccc(C(=O)NC(C)C)n4)cn3)ccc2[nH]1 [Compound 146] | 4 to 97 nM |
| CC(C)NC(=O)c1cccc(C(=O)NCc2cnn(-c3ccc4ncn(C)c4c3)c2)n1 [Compound 147] | 4 to 97 nM |
| CC(C)NC(=O)c1cccc(C(=O)NCc2cnn(-c3ccc4[nH]cnc4c3)c2)n1 [Compound 148] | 4 to 97 nM |
| Cc1ccc2cc(-n3cc(CNC(=O)c4cccc(C(=O)NC(C)C)n4)cn3)ccc2n1 [Compound 149] | 4 to 19 nM and 4 to 97 nM |
| CC(C)NC(=O)c1cccc(C(=O)NCc2cnn(-c3ccc(F)c(C(F)(F)F)c3)c2)n1 [Compound 150] | 4 to 97 nM |
| CC(C)NC(=O)c1cccc(C(=O)NCc2cnn(-c3ccc4nccnc4c3)c2)n1 [Compound 151] | 4 to 19 nM and 4 to 97 nM |
| CC(C)NC(=O)c1cccc(C(=O)NCc2cnn(-c3cncc(F)c3)c2)n1 [Compound 153] | 4 to 97 nM |
| CC(C)NC(=O)c1cccc(C(=O)NCc2cnn(-c3ccc([S+](C)[O-])cc3)c2)n1 (stereo not shown) [Compound 154] | 4 to 97 nM |
| CC(C)NC(=O)c1cccc(C(=O)NCc2cnn(-c3cc(Br)cc(C#N)c3)c2)n1 [Compound 155] | 4 to 97 nM |
| CC(C)NC(=O)c1cccc(C(=O)NCc2cnn(-c3ccccn3)c2)n1 [Compound 156] | 102 to 959 nM |
| CC(C)NC(=O)c1cccc(C(=O)NCc2cnn(-c3ccccc3Cl)c2)n1 [Compound 157] | 102 to 959 nM |
| CC(C)NC(=O)c1cccc(C(=O)NCc2cnn(-c3ccncc3)c2)n1 [Compound 159] | 102 to 959 nM |
| CC(C)NC(=O)c1cccc(C(=O)NCc2cnn(-c3ncccn3)c2)n1 [Compound 160] | 102 to 959 nM |
| CC(C)NC(=O)c1cccc(C(=O)NCc2cnn(-c3cncc(C#N)c3)c2)n1 [Compound 161] | 4 to 97 nM |
| CC(C)NC(=O)c1cccc(C(=O)NCc2cnn(-c3cc(F)cc(C#N)c3)c2)n1 [Compound 162] | 102 to 959 nM |
| CC(C)NC(=O)c1cccc(C(=O)NCc2cnn(-c3nccs3)c2)n1 [Compound 163] | 102 to 959 nM |
| Cc1cccc(-c2ccc(CNC(=O)c3cccc(C(=O)NC(C)C)n3)cn2)c1 [Compound 174] | 102 to 959 nM |
| CC(C)NC(=O)c1cccc(C(=O)NCc2ccc(-c3cccc(F)c3)nc2)n1 [Compound 175] | 4 to 97 nM |
